Our source for the Dmax and DC50 values is patent US12624044B2, “SMARCA degraders and uses thereof” (Kymera Therapeutics, Inc., priority 2019, dated 2026).

Holding throughout (type): cell-based
The target of assay [1] is T1, SMARCA4 (Homo sapiens, UniProt P51532).
T1 construct: SMARCA2 and SMARCA4 protein degradation in MV4-11 cells; endogenous in cells; host or cells: MV4-11
Briefly: SMARCA4 Western blot MV4-11 degradation. The conditions noted are these: 24 h; for Dmax: MV4-11, MV4-11 cells, read-out: SMARCA4 WB MV411 degradation 24 h: Average Dmax %; for DC50: MV4-11 cells, read-out: SMARCA4 WB MV411 degradation 24 h: Average external-Abs DC50. How it is done:
Cells were seeded into 6-well plates (MV4-11: 4×10^6 cells/well/1 ml) and 1 ml of 2× compound solution was added into the well to make the final concentration and the plates were mixed well and incubated for 24 hours (No cytotoxicity was observed). The cell were collected with media and spun at 3000 rpm for 5 minutes. The supernatant was aspirated and the well and the cells were washed with cold PBS once and combined for centrifugation again; the supernatant aspirated again. 200 ul pre-chilled RIPAlysis buffer (Boston BioProducts BP-115D) with protease/phosphatase inhibitor (Roche 05892791001/Roche 04906837001) was directly added into the tube to lyze the cells for 20 minutes on ice. The cell lysate were collected into EP tubes and spun at 13000 rpm for 20 minutes and 72 ul supernatant was transferred to a fresh EP tube containing 18 ul of 5× loading buffer (Beyotime Bio P0015) to make the loading samples. The samples were heated to 100° C. for 10 minutes and cooled to RT and microcentrifuged. 20 ul of samples were loaded onto SDS-PAGE gel (Novex, WG1402BOX) and the gel was run at 80 V for 20 minutes and 120 V for 1.5 hours. The samples were electrotransfer to a NC membrane using wet-transfer method with 250 mA for 2.5 hours. The membrane was blocked with LICOR blocking buffer (LI-COR, 927-50000) for 1 hour. The membrane was washed three times with TBST (CST #9997S), 5 minutes each. Incubation was performed with primary antibody prepared in blocking buffer with 0.1% Tween-20 (Solarbio, P8220) at 4° C. overnight (Anti-SMARCA2/BRM antibody (ab15597) 1:500; Anti-BRG1 antibody [EPR3912] (ab108318) 1:1000; Rabbit anti-Baf180 antibody [EPR15860] (Abcam, ab196022) 1:1000; mouse anti-beta-Actin (8H10D10) (CST #3700) 1:10000). The membrane was washed three times with TBST, 5 minutes each. Incubation with secondary antibody was performed for 1 hour at RT (anti-rabbit IgG (Licor, 926-32211) 1:5000; anti-mouse IgG (LI-COR, 926-68070) 1:5000). The membrane was washed three times with TBST, 5 minutes each and lastly the LiCOR was read.
The letter codes for the percentage of SMARCA degradation after 24 hours (Dmax %) include: A (>90% degradation), B (>70-90% degradation), C (50-70% degradation), and D (<50% degradation).
(Immunoblotting shows a protein as a band on a membrane.)

Assay [2] deals with T2, SMARCA2 (Homo sapiens, UniProt P51531). Briefly: MSD SMARCA2 degradation in NCI-H1299 cell line (24 h). Details: HC: NCI-H1299 cells treated with DMSO; host or cells: NCI-H1299. The conditions noted are these: for Dmax: NCI-H1299, NCI-H1299 cells; for DC50: NCI-H1299 cells, read-out: SMARCA2 MSD H1299 degradation 24 h: External Abs-DC50. In a few lines: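 NCI-H1299 cells treated 24 h with a 3-fold, 9-point compound dilution series, then lysed in RIPA with protease inhibitor. SMARCA2 in lysate-coated MSD plates detected with rabbit anti-SMARCA2 (0.3 ug/ml) and SULFO-TAG secondary. Relative SMARCA2 level normalized between DMSO-treated H1299 cells and SMARCA2-negative A2780 cells; Dmax % binned A–D.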

Assay [3] concerns the target T2, SMARCA2. Nature of the assay: MSD SMARCA2 degradation in A549 cell line. Particulars: 24 h; for Dmax: A549, A549 cells; for DC50: A549 cells, read-out: SMARCA2 MSD A549 degradation 24 h: Average external-Abs DC50. Summed up: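 A549 cells treated 24 h with compound at final 0.152-1000 nM (3-fold series, DMSO control). Lysates analyzed by MSD immunoassay using anti-SMARCA2/BRM detection and SULFO-TAG secondary antibodies; maximal degradation (Dmax %) reported as letter bins.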

T1 sequence (P51532 whole entry): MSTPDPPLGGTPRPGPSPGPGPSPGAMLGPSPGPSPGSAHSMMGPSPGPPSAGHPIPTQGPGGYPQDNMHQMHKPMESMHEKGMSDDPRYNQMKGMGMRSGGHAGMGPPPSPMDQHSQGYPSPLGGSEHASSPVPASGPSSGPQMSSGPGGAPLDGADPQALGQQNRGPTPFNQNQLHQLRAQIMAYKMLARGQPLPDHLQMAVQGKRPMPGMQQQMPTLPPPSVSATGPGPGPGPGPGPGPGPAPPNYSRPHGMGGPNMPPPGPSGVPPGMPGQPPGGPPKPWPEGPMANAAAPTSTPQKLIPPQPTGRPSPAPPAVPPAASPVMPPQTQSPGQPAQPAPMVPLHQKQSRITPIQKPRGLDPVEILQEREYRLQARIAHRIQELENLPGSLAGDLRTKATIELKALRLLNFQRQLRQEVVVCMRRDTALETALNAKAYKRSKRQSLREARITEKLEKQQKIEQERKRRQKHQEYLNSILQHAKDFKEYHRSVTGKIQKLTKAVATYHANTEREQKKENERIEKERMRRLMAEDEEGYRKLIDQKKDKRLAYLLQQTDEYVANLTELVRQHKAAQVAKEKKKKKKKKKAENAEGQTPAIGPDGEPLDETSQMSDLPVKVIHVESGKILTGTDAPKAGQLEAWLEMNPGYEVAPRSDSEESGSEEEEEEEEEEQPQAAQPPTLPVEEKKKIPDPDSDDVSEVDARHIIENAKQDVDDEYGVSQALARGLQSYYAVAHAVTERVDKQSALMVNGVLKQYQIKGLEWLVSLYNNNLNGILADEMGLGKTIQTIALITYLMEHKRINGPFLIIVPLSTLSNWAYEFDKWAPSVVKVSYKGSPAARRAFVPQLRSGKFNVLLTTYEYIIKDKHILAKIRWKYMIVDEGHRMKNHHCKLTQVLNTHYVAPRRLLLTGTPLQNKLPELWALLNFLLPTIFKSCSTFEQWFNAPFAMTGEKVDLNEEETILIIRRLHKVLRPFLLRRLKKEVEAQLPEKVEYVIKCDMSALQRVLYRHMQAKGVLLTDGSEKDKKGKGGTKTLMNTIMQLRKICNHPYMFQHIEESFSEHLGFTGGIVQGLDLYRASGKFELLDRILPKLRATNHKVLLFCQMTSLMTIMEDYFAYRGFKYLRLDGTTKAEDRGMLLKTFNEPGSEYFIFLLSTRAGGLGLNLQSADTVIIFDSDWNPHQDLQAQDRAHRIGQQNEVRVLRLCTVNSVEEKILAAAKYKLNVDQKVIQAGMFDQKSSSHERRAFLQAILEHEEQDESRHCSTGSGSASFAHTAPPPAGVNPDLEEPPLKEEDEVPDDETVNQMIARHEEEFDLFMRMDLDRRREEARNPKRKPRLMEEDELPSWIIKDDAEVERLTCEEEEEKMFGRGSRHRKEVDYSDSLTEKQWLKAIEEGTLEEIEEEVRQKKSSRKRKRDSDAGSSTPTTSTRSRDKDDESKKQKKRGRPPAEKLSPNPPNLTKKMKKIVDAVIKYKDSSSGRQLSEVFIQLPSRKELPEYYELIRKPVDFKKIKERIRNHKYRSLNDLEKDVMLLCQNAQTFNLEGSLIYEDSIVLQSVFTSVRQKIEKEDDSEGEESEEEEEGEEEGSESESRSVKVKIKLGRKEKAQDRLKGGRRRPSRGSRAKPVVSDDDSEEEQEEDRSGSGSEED
T2 sequence (P51531 whole entry): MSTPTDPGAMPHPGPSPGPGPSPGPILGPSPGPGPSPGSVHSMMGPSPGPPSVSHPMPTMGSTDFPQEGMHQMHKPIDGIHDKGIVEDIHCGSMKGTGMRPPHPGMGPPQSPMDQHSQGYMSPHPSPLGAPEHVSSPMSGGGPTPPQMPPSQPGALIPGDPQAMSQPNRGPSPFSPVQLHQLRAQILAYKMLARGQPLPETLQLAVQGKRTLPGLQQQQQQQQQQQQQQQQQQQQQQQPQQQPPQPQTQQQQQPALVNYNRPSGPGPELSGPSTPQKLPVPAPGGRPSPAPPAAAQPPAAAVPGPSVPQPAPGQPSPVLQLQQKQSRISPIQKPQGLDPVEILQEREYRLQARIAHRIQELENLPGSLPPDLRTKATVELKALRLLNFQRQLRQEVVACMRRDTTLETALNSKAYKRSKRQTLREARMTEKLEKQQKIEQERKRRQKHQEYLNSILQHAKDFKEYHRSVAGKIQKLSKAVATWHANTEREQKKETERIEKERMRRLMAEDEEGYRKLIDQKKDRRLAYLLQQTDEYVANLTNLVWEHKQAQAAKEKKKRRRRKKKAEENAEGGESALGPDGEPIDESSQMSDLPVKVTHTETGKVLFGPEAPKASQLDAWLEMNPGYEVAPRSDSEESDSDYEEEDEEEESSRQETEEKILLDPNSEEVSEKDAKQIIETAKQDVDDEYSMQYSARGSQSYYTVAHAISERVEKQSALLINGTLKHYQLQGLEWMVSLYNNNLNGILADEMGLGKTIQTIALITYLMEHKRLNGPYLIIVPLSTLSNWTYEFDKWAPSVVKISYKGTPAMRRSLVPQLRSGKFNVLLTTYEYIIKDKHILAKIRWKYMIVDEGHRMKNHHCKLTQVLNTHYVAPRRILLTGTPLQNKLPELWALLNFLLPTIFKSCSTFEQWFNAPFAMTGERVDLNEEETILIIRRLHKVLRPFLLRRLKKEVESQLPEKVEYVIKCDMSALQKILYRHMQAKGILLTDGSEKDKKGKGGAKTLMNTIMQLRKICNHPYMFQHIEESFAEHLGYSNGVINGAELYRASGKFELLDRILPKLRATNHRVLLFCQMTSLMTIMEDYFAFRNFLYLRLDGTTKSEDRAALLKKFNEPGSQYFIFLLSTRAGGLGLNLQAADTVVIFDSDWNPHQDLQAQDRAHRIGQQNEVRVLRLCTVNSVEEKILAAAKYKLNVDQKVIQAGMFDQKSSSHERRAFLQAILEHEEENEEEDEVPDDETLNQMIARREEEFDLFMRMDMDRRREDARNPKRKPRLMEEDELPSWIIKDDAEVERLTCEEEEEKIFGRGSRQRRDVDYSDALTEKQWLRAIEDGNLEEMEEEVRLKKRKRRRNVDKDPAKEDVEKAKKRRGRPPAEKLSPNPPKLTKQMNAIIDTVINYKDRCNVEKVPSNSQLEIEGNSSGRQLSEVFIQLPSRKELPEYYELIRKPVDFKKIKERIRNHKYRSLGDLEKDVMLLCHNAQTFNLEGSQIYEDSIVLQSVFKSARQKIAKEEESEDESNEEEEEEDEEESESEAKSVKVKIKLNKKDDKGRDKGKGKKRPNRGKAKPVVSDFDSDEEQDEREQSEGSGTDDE

For `CN(Cc1cnc(N2C3CCC2CN(c2cc(-c4ccccc4O)nnc2N)C3)nc1)CC1CCN(c2ccc3c(c2)n(C)c(=O)n3C2CCC(=O)NC2=O)CC1` (centres unmarked) [I-282, 3-(5-(4-((((2-(3-(3-amino-6-(2-hydroxyphenyl)pyridazin-4-yl)-3,8-diazabicyclo[3.2.1]octan-8-yl)pyrimidin-5-yl)methyl)(methyl)amino)methyl)piperidin-1-yl)-3-methyl-2-oxo-2,3-dihydro-1H-benzo[d]imidazol-1-yl)piperidine-2,6-dione], in assay [1], the Dmax is more than 90% and the half-maximal degradation concentration (DC50) is less than 100 nM. Besides, in assay [2], the maximal degradation (Dmax) is more than 90% and the DC50 was less than 100 nM.
Take `CN(CCCCCc1cnc(N2C3CCC2CN(c2cc(-c4ccccc4O)nnc2N)C3)nc1)Cc1ccc2c(c1)n(C)c(=O)n2C1CCC(=O)NC1=O` (centres unmarked) [I-283]: in assay [1], the greatest degradation seen (Dmax) is more than 90% and the half-maximal degradation concentration (DC50) is less than 100 nM. Also, in assay [2], the Dmax is more than 90% and the half-maximal degradation concentration (DC50) is less than 100 nM.
As to `Cn1c(=O)n(C2CCC(=O)NC2=O)c2ccc(CCC(=O)N3CCC(c4cnc(N5C6CCC5CN(c5cc(-c7ccccc7O)nnc5N)C6)nc4)CC3)cc21` (centres unmarked) [I-286], the greatest degradation seen (Dmax) in assay [1] is more than 90%; in assay [2] it was 70 to 90%. For the same compound, the DC50 is less than 100 nM in assay [1] and 100 to 500 nM in assay [2].
The like results for `Cn1c(=O)n(C2CCC(=O)NC2=O)c2ccc(CCCN3CCC(c4cnc(N5CCN(c6cc(-c7ccccc7O)nnc6N)CC5)nc4)CC3)cc21` (centres unmarked) [I-288] were, in that order, more than 90%, more than 90%, less than 100 nM and less than 100 nM.
In the same order, the values of `Cn1c(=O)n(C2CCC(=O)NC2=O)c2ccc(CCCN3CCCC(c4cnc(N5C6CCC5CN(c5cc(-c7ccccc7O)nnc5N)C6)nc4)C3)cc21` (centres unmarked) [I-289] are 50 to 70%, 70 to 90%, less than 100 nM and less than 100 nM.
In the same order, the values of `Cn1c(=O)n(C2CCC(=O)NC2=O)c2cccc(CCCN3CCCC(c4cnc(N5C6CCC5CN(c5cc(-c7ccccc7O)nnc5N)C6)nc4)C3)c21` (centres unmarked) [I-292] are more than 90%, more than 90%, less than 100 nM and less than 100 nM.
On to `Cn1c(=O)n(C2CCC(=O)NC2=O)c2ccc(CCN3CCN(C(=O)c4cnc(N5C6CCC5CN(c5cc(-c7ccccc7O)nnc5N)C6)nc4)CC3)cc21` (centres unmarked) [I-293, 3-(5-(2-(4-(2-(3-(3-amino-6-(2-hydroxyphenyl)pyridazin-4-yl)-3,8-diazabicyclo[3.2.1]octan-8-yl)pyrimidine-5-carbonyl)piperazin-1-yl)ethyl)-3-methyl-2-oxo-2,3-dihydro-1H-benzo[d]imidazol-1-yl)piperidine-2,6-dione], for which, in assay [1], the Dmax is more than 90% and the DC50 is less than 100 nM. In assay [2], the greatest degradation seen (Dmax) is more than 90% and the 50% degradation concentration (DC50) is less than 100 nM.
In the case of `Cc1ncsc1-c1ccc(CNC(=O)[C@@H]2C[C@@H](O)CN2C(=O)[C@@H](NC(=O)N2CCC3(CCC(c4cnc(N5C6CCC5CN(c5cc(-c7ccccc7O)nnc5N)C6)nc4)CC3)CC2)C(C)(C)C)cc1` [I-510], in assay [3], the Dmax is more than 90% and the DC50 lay in the range of 100 to 500 nM.
In the case of `Cc1ncsc1-c1ccc(CNC(=O)[C@@H]2C[C@@H](O)CN2C(=O)[C@@H](NC(=O)C2(F)CC2)C2CCC(N(C)CCCC#Cc3cnc(N4C5CCC4CN(c4cc(-c6ccccc6O)nnc4N)C5)nc3)CC2)cc1` (some centres unmarked) [I-517], in assay [3], the greatest degradation seen (Dmax) is 50 to 70% and the DC50 lay in the range of 501 to 1000 nM.
Turning to `Cc1ncsc1-c1ccc(CNC(=O)[C@@H]2C[C@@H](O)CN2C(=O)C(NC(=O)C2(F)CC2)C2CCC(N(C)CCCCCc3cnc(N4C5CCC4CN(c4cc(-c6ccccc6O)nnc4N)C5)nc3)CC2)cc1` (some centres unmarked) [I-519], in assay [3], the Dmax was less than 50% and the 50% degradation concentration (DC50) was more than 1000 nM.
In the same order, the values of `Cc1ncsc1-c1ccc(CNC(=O)[C@@H]2C[C@@H](O)CN2C(=O)C(NC(=O)C2(F)CC2)C2CCC(N(C)CCCCCCCc3cnc(N4C5CCC4CN(c4cc(-c6ccccc6O)nnc4N)C5)nc3)CC2)cc1` (stereo partly drawn) [I-520, (2S,4R)-1-[2-[4-[7-[2-[3-[3-amino-6-(2-hydroxyphenyl)pyridazin-4-yl]-3,8-diazabicyclo[3.2.1]octan-8-yl]pyrimidin-5-yl]heptyl-methyl-amino]cyclohexyl]-2-[(1-fluorocyclopropanecarbonyl)amino]acetyl]-4-hydroxy-N-[[4-(4-methylthiazol-5-yl)phenyl]methyl]pyrrolidine-2-carboxamide] are less than 50% and more than 1000 nM.
The like results for `COCC(=O)N1CCCc2cc(OCC(=O)NCCCN3CCC(c4cnc(N5C6CCC5CN(c5cc(-c7ccccc7O)nnc5N)C6)nc4)CC3)ccc21` [I-526] were, in that order, less than 50% and more than 1000 nM.
The like results for `COc1ccccc1-c1cc(N2CC3CCC(C2)N3c2ncc(C3CCN(CCCNC(=O)COc4ccc5c(c4)CCCN5C(=O)CCl)CC3)cn2)c(N)nn1` [I-527] were, in that order, less than 50% and more than 1000 nM.
For the compound `Nc1nnc(-c2ccccc2O)cc1N1CC2CCC(C1)N2c1ncc(C2CCN(CCCCNC(=O)COc3ccc4c(c3)CCCN4C(=O)CCl)CC2)cn1` [I-528], in assay [3], the Dmax was less than 50% and the half-maximal degradation concentration (DC50) is more than 1000 nM.
In the same order, the values of `Nc1nnc(-c2ccccc2O)cc1N1CC2CCC(C1)N2c1ncc(C2CCN(CCCCCCNC(=O)COc3ccc4c(c3)CCCN4C(=O)CCl)CC2)cn1` [I-529] are less than 50% and more than 1000 nM.
Consider `Nc1nnc(-c2ccccc2O)cc1N1CC2CCC(C1)N2c1ncc(C2CCN(CCCCOc3ccc(Oc4ccc(N(Cc5ccccc5)C(=O)CCl)cc4)cc3)CC2)cn1` [I-530], for which, in assay [3], the greatest degradation seen (Dmax) is less than 50% and the half-maximal degradation concentration (DC50) was more than 1000 nM.
As for `Nc1nnc(-c2ccccc2O)cc1N1CC2CCC(C1)N2c1ncc(C2CCN(CCCCCCOc3ccc(Oc4ccc(N(Cc5ccccc5)C(=O)CCl)cc4)cc3)CC2)cn1` [I-531], in assay [3], the Dmax is less than 50% and the DC50 was more than 1000 nM.
The like results for `Nc1nnc(-c2ccccc2O)cc1N1CC2CCC(C1)N2c1ncc(C2CCN(CCCCCCCCOc3ccc(Oc4ccc(N(Cc5ccccc5)C(=O)CCl)cc4)cc3)CC2)cn1` [I-532] were, in that order, 50 to 70% and more than 1000 nM.
The like results for `Nc1nnc(-c2ccccc2O)cc1N1CC2CCC(C1)N2c1ncc(C2CCN(CCCCCCCCCCOc3ccc(Oc4ccc(N(Cc5ccccc5)C(=O)CCl)cc4)cc3)CC2)cn1` [I-533, N-(4-(4-((10-(4-(2-(3-(3-amino-6-(2-hydroxyphenyl)pyridazin-4-yl)-3,8-diazabicyclo[3.2.1]octan-8-yl)pyrimidin-5-yl)piperidin-1-yl)decyl)oxy)phenoxy)phenyl)-N-benzyl-2-chloroacetamide] were, in that order, less than 50% and more than 1000 nM.
Consider `CC(C)(C)[C@H](NC(=O)[C@H]1CC2(C1)C[C@H](N1CCC(c3cnc(N4C5CCC4CN(c4cc(-c6ccccc6O)nnc4N)C5)nc3)CC1)C2)C(=O)N1C[C@H](O)C[C@H]1C(=O)NOc1ccc(-c2ccccc2F)cc1` (stereo partly drawn) [I-538, (2S,4R)-1-[(2S)-2-[[2-[4-[2-[3-[3-amino-6-(2-hydroxyphenyl)pyridazin-4-yl]-3,8-diazabicyclo[3.2.1]octan-8-yl]pyrimidin-5-yl]-1-piperidyl]spiro[3.3]heptane-6-carbonyl]amino]-3,3-dimethyl-butanoyl]-N-[4-(2-fluorophenyl)phenoxy]-4-hydroxy-pyrrolidine-2-carboxamide], for which the 50% degradation concentration (DC50) in assay [3] is more than 1000 nM.

As usually defined, the Dmax is the largest share of the target that was removed. As a reminder, the DC50 is the concentration at which degradation of the target reaches its halfway point.
